According to patent US4056622A, “N-sulfonyl-N-dihalophenylimidazolidinediones” (Sumitomo Chemical Company, Limited, priority 1975, dated 1977):
Values after ≈ are worked out from the molar mass of the structure shown.

tested on: Botrytis cinerea; test: Test for Botrytis cinerea on cucumbers: systemic activity by the water culture method; type: in vivo; conditions: cucumber, 5 ppm solution, 3 days, 3 days after inoculation
Method: The systemic activity of the test compound was tested by the water culture method in the following manner. The plants were pulled out from the pots carefully so as not to damage the roots, and the soil attached to the roots was well removed by water-washing. The plants were placed into flasks containing a 5 ppm solution of the test compound (50 ml) and allowed to stand for 3 days at a constant temperature under illumination. Agar discs with the mycelium were attached to the cotyledons for inoculation, and the degree of damage was examined three days thereafter.
(§1) Percentage of control was determined by the following procedure. The rate of diseased area on the tested leaf was measured and classified in one of the six infectious indexes (0, 1, 2, 3, 4, 5) according to the undermentioned criteria. The number of leaves corresponding to each infectious index (n0, n1, n2, n3, n4, n5) was determined, and calculation was effected according to the undermentioned equation.

| Compound | Disease-preventing value: Systemic activity [%] |
| --- | --- |
| CCCS(=O)(=O)N1CC(=O)N(c2cc(Cl)cc(Cl)c2)C1=O [Compound 55] | 88 |
| CC(C)S(=O)(=O)N1CC(=O)N(c2cc(Cl)cc(Cl)c2)C1=O [Compound 56] | 92 |
| CCCCS(=O)(=O)N1CC(=O)N(c2cc(Cl)cc(Cl)c2)C1=O [Compound 57] | 79 |
| CC(C)CS(=O)(=O)N1CC(=O)N(c2cc(Cl)cc(Cl)c2)C1=O [Compound 58] | 63 |
| CCCCNC(=O)n1c(NC(=O)OC)nc2ccccc21 [Methyl-1-(butylcarbamoyl)-2-benzimidazole carbamate, reference compound] | 91 |
| CCC(=O)N1CC(=O)N(c2cc(Cl)cc(Cl)c2)C1=O [reference compound] | 0 |
| O=C1CNC(=O)N1c1cc(Cl)cc(Cl)c1 [reference compound] | 0 |

tested on: Botrytis cinerea; test: Test for Botrytis cinerea-controlling effect on cucumbers: disease preventing effect; type: in vivo; conditions: cucumber; 50 ppm active ingredient, 7 ml per pot; 3 days after inoculation
Method: An aqueous dilution of the test compound in the form of a wettable powder preparation was applied to cotyledons of cucumbers, cultered in pots of 9 cm in diameter and the first leaf was nipped off when it developed, at a rate of 7 ml per pot. After one day, agar discs (diameter: 5 mm) with Botrytis cinerea were attached to the leaves for inoculation. Three days thereafter, the disease severity was observed, and the disease-controllingeffect was estimated.
as §1

| Compound | Disease-preventing value: Disease preventing effect [%] |
| --- | --- |
| CCCS(=O)(=O)N1CC(=O)N(c2cc(Cl)cc(Cl)c2)C1=O [Compound 55] | 100 |
| CC(C)S(=O)(=O)N1CC(=O)N(c2cc(Cl)cc(Cl)c2)C1=O [Compound 56] | 100 |
| CCCCS(=O)(=O)N1CC(=O)N(c2cc(Cl)cc(Cl)c2)C1=O [Compound 57] | 98 |
| CC(C)CS(=O)(=O)N1CC(=O)N(c2cc(Cl)cc(Cl)c2)C1=O [Compound 58] | 100 |
| CCCCNC(=O)n1c(NC(=O)OC)nc2ccccc21 [Methyl-1-(butylcarbamoyl)-2-benzimidazole carbamate, reference compound] | 90 |
| CCC(=O)N1CC(=O)N(c2cc(Cl)cc(Cl)c2)C1=O [reference compound] | 89 |
| O=C1CNC(=O)N1c1cc(Cl)cc(Cl)c1 [reference compound] | 70 |

tested on: Sclerotinia sclerotiorum; test: Test for Sclerotinia sclerotiorum-controlling effect on cucumbers; type: in vivo; conditions: cucumber; 100 ppm active ingredient, 7 ml per pot; 3 days after inoculation
Method: An aqueous dilution of the test compound in the form of a wettable powder preparation was applied to cucumbers, cultured in pots of 9 cm in diameter, when the first leaf was almost developed, at a rate of 7 ml per pot. After one day, Sclerotinia sclerotiorum was inoculated on the surface of the leaf, and the infectious state was examined three days thereafter. The degree of damage was determined in the following manner. The rate of infectious area on the leaf was measured and classified in one of the six infectious indexes (0, 1, 2, 3, 4, 5) according to the undermentioned criteria. The number of leaves corresponding to each infectious index (n0, n1, n2, n3, n4, n5) was determined, and calculation was effected according to the undermentioned equation.

| Compound | Degree of damage [%] |
| --- | --- |
| CCS(=O)(=O)N1CC(=O)N(c2cc(Cl)cc(Cl)c2)C1=O [Compound 54] | 12 |
| CCCS(=O)(=O)N1CC(=O)N(c2cc(Cl)cc(Cl)c2)C1=O [Compound 55] | 0 |
| CC(C)S(=O)(=O)N1CC(=O)N(c2cc(Cl)cc(Cl)c2)C1=O [Compound 56] | 0 |
| CCCCS(=O)(=O)N1CC(=O)N(c2cc(Cl)cc(Cl)c2)C1=O [Compound 57] | 0 |
| C=CCS(=O)(=O)N1CC(=O)N(c2cc(Cl)cc(Cl)c2)C1=O [Compound 63] | 9 |
| CCCS(=O)(=O)N1CC(=O)N(c2cc(Br)cc(Br)c2)C1=O [Compound 64] | 0 |
| CCCS(=O)(=O)N1C(=O)N(c2cc(Cl)cc(Cl)c2)C(=O)C1C (stereo not shown) [Compound 66] | 3 |
| O=C1CN(S(=O)(=O)CCCCl)C(=O)N1c1cc(Cl)cc(Cl)c1 [Compound 70] | 0 |
| CCCCNC(=O)n1c(NC(=O)OC)nc2ccccc21 [Methyl-1-(butylcarbamoyl)-2-benzimidazole carbamate, reference compound] | 32 |

tested on: Cladosporium herbarum IAM F 517; test: Antimicrobial spectrum against industrial fungi, agar medium dilution method: Cladosporium herbarum; type: cell-based; conditions: IAMF517, C. herbarum, read-out: Minimal inhibitory concentration of active ingredient
Source text: (§2) The effect for inhibition of hyphae growth was examined by the agar medium dilution method on Aspergillus niger ATCC 6275, Cladosporium herbarum IAM F 517 and Chaetomium globosum ATCC 6205 multiplying on industrial products and damaging them.

| Compound | MIC [µg/mL] |
| --- | --- |
| CCC(C)S(=O)(=O)N1CC(=O)N(c2cc(Cl)cc(Cl)c2)C1=O (stereo not shown) [Compound 59] | 1000 (≈ 2740 µM) |
| CCCCCS(=O)(=O)N1CC(=O)N(c2cc(Cl)cc(Cl)c2)C1=O [Compound 61] | 2000 (≈ 5270 µM) |

tested on: Pellicularia sasakii; test: Test for Pellicularia sasakii-controlling effect on rice plants; type: in vivo; conditions: dust, 1.4 % active ingredient, 3 kg per 10 a, 5 days after inoculation
Method: The test compound in the form of a dust preparation was applied to rice plants (variety: Wase-Asahi), cultured in porcelain Wagner pots (1/500 a) and grown up to a grass height of 50 to 60 cm, at a rate of 3 kg per 10 a by the use of a duster. After one day, a mycelial disc of Pellicularia sasakii was attached to the sheath of each stem for inoculation. Five days thereafter, the size of the diseased spot generated on the sheath was measured, and the degree of damage was calculated according to the following equation to estimate the disease-controlling effect of the compound. [formula]

| Compound | Degree of damage [%] |
| --- | --- |
| CCCS(=O)(=O)N1CC(=O)N(c2cc(Cl)cc(Cl)c2)C1=O [Compound 55] | 25 |
| CC(C)S(=O)(=O)N1CC(=O)N(c2cc(Cl)cc(Cl)c2)C1=O [Compound 56] | 19 |
| CCC(C)S(=O)(=O)N1CC(=O)N(c2cc(Cl)cc(Cl)c2)C1=O (stereo not shown) [Compound 59] | 19 |
| CCCS(=O)(=O)N1C(=O)N(c2cc(Cl)cc(Cl)c2)C(=O)C1C (stereo not shown) [Compound 66] | 16 |

tested on: Botrytis cinerea; test: Test for Botrytis cinerea on cucumbers: effect of prevention of diseased spot-development; type: in vivo; conditions: cucumber; 100 ppm, 7 ml per pot, applied one day after inoculation
Method: The test for examining the effect of prevention of diseased spot-development was carried out in the following manner. An agar disc with the mycelium was attached to the first leaf for inoculation. After one day, the diameter of the diseased spot was measured. The solution of the test compound was applied to the plant at a rate of 7 ml per pot, and two days thereafter, the diameter of the diseased spot was again measured, and the effect for prevention of diseased spot-development was calculated according to the following equation: [formula]

| Compound | Effect for prevention of diseased spot-development [%] |
| --- | --- |
| CCCS(=O)(=O)N1CC(=O)N(c2cc(Cl)cc(Cl)c2)C1=O [Compound 55] | 88 |
| CC(C)S(=O)(=O)N1CC(=O)N(c2cc(Cl)cc(Cl)c2)C1=O [Compound 56] | 78 |
| CCCCS(=O)(=O)N1CC(=O)N(c2cc(Cl)cc(Cl)c2)C1=O [Compound 57] | 65 |
| CC(C)CS(=O)(=O)N1CC(=O)N(c2cc(Cl)cc(Cl)c2)C1=O [Compound 58] | 73 |

same assay, conditions: cucumber; 500 ppm, 7 ml per pot, applied one day after inoculation

| Compound | Effect for prevention of diseased spot-development [%] |
| --- | --- |
| CCCCNC(=O)n1c(NC(=O)OC)nc2ccccc21 [Methyl-1-(butylcarbamoyl)-2-benzimidazole carbamate, reference compound] | 87 |
| CCC(=O)N1CC(=O)N(c2cc(Cl)cc(Cl)c2)C1=O [reference compound] | 21 |
| O=C1CNC(=O)N1c1cc(Cl)cc(Cl)c1 [reference compound] | 13 |

tested on: Alternaria bracissicola; test: Test for Alternaria bracissicola-controlling effect (chinese cabbage); type: in vivo; conditions: 100 ppm active ingredient, 7 ml per pot
Method: An aqueous dilution of the test compound in the form of a wettable powder preparation was applied to chinese cabbage (variety: Nozaki No. 2), cultured in pots of 9 cm in diameter and almost grown up to the two leaved stage, at a rate of 7 ml per pot. After one day, a spore suspension of Alternaria bracissicola was sprayed on the surface of the leaf for inoculation. The pots were left in a dark, moist room for one day and then under illumination for 2 days. Then, the infectious state was examined. The degree of damage was determined in the following manner. The rate of infectious area on the leaf was measured and classified in one of the infectious indexes (0, 1, 2, 3, 4, 5) according to the undermentioned criteria. The number of leaves corresponding to each infectious index (n0, n1, n2, n3, n4, n5) was determined, and calculation was effected according to the undermentioned equation.

| Compound | Degree of damage [%] |
| --- | --- |
| CS(=O)(=O)N1CC(=O)N(c2cc(Cl)cc(Cl)c2)C1=O [Compound 53] | 7 |
| CCS(=O)(=O)N1CC(=O)N(c2cc(Cl)cc(Cl)c2)C1=O [Compound 54] | 5 |
| CCCS(=O)(=O)N1CC(=O)N(c2cc(Cl)cc(Cl)c2)C1=O [Compound 55] | 0 |
| CCCCS(=O)(=O)N1CC(=O)N(c2cc(Cl)cc(Cl)c2)C1=O [Compound 57] | 1 |
| CCCS(=O)(=O)N1C(=O)N(c2cc(Cl)cc(Cl)c2)C(=O)C1(C)C [Compound 69] | 21 |
| O=C1CN(S(=O)(=O)CCCCl)C(=O)N1c1cc(Cl)cc(Cl)c1 [Compound 70] | 2 |

same assay, conditions: 200 ppm active ingredient, 7 ml per pot

| Compound | Degree of damage [%] |
| --- | --- |
| CS(=O)(=O)N1CC(=O)N(c2cc(Cl)cc(Cl)c2)C1=O [Compound 53] | 11 |
| CCS(=O)(=O)N1CC(=O)N(c2cc(Cl)cc(Cl)c2)C1=O [Compound 54] | 2 |
| CCCS(=O)(=O)N1CC(=O)N(c2cc(Cl)cc(Cl)c2)C1=O [Compound 55] | 0 |
| CCCCS(=O)(=O)N1CC(=O)N(c2cc(Cl)cc(Cl)c2)C1=O [Compound 57] | 0 |
| CCCS(=O)(=O)N1C(=O)N(c2cc(Cl)cc(Cl)c2)C(=O)C1(C)C [Compound 69] | 6 |
| O=C1CN(S(=O)(=O)CCCCl)C(=O)N1c1cc(Cl)cc(Cl)c1 [Compound 70] | 1 |

tested on: Aspergillus niger ATCC 6275; test: Antimicrobial spectrum against industrial fungi, agar medium dilution method: Aspergillus niger; type: cell-based; conditions: ATCC6275, A. niger, read-out: Minimal inhibitory concentration of active ingredient
Source text: as §2

| Compound | MIC [µg/mL] |
| --- | --- |
| CCC(C)S(=O)(=O)N1CC(=O)N(c2cc(Cl)cc(Cl)c2)C1=O (stereo not shown) [Compound 59] | 1000 (≈ 2740 µM) |
| CCCCCS(=O)(=O)N1CC(=O)N(c2cc(Cl)cc(Cl)c2)C1=O [Compound 61] | 1000 (≈ 2640 µM) |

tested on: Chaetomium globosum ATCC 6205; test: Antimicrobial spectrum against industrial fungi, agar medium dilution method: Chaetomium globosum; type: cell-based; conditions: ATCC6205, C. globosum, read-out: Minimal inhibitory concentration of active ingredient
Source text: as §2

| Compound | MIC [µg/mL] |
| --- | --- |
| CCC(C)S(=O)(=O)N1CC(=O)N(c2cc(Cl)cc(Cl)c2)C1=O (stereo not shown) [Compound 59] | 1000 (≈ 2740 µM) |
| CCCCCS(=O)(=O)N1CC(=O)N(c2cc(Cl)cc(Cl)c2)C1=O [Compound 61] | 1000 (≈ 2640 µM) |
